Laboratory results reported in paper PMC6540285, “Evaluation of Protein Kinase Inhibitors with PLK4 Cross-Over Potential in a Pre-Clinical Model of Cancer” (International Journal of Molecular Sciences, 2019).

Columns and labels:
PDGFRA V561D = PDGFRA V561D (Homo sapiens, UniProt P16234, V561D); test: SelectScreen kinase profiling, ZLYTE; type: biochemical
KIT Y823D = KIT Y823D (Homo sapiens, UniProt P10721, Y823D); test: SelectScreen kinase profiling, LanthaScreen binding
CDC42 BPB (MRCKB) = CDC42 BPB (MRCKB) (Homo sapiens, UniProt Q9Y5S2); test: SelectScreen kinase profiling, ZLYTE; type: biochemical
CLK3 = CLK3 (Homo sapiens, UniProt P49761); test: SelectScreen kinase profiling, ZLYTE; type: biochemical; conditions: CLK3, 10 µM
GRK4 = GRK4 (Homo sapiens, UniProt P32298); test: SelectScreen kinase profiling, ZLYTE; type: biochemical; conditions: GRK4, 10 µM
[1] = target: MAPK14 (p38 alpha) Direct (Homo sapiens, UniProt Q16539); test: SelectScreen kinase profiling, ZLYTE; type: biochemical
MAP2K6 (MKK6) = MAP2K6 (MKK6) (Homo sapiens, UniProt P52564); test: SelectScreen kinase profiling, ZLYTE; type: biochemical
CDK8/cyclin C = CDK8/cyclin C (Homo sapiens, UniProt P49336); test: SelectScreen kinase profiling, LanthaScreen binding
P450 2C19 = P450 2C19 (Homo sapiens, UniProt P33261)
CHEK1 (CHK1) = CHEK1 (CHK1) (Homo sapiens, UniProt O14757); test: SelectScreen kinase profiling, ZLYTE; type: biochemical
RPS6KA6 (RSK4) = RPS6KA6 (RSK4) (Homo sapiens, UniProt Q9UK32); test: SelectScreen kinase profiling, ZLYTE; type: biochemical
PIK3C2A (PI3K-C2 alpha) = PIK3C2A (PI3K-C2 alpha) (Homo sapiens, UniProt O00443); test: SelectScreen kinase profiling, Adapta; type: biochemical
NEK7 = NEK7 (Homo sapiens, UniProt Q8TDX7); test: SelectScreen kinase profiling, ZLYTE; type: biochemical; conditions: NEK7, 10 µM
PRKCQ (PKC theta) = PRKCQ (PKC theta) (Homo sapiens, UniProt Q04759); test: SelectScreen kinase profiling, ZLYTE; type: biochemical
ROS1 = ROS1 (Homo sapiens, UniProt P08922); test: SelectScreen kinase profiling, ZLYTE; type: biochemical; conditions: ROS1, 10 µM
MAPK3 (ERK1) = MAPK3 (ERK1) (Homo sapiens, UniProt P27361); test: SelectScreen kinase profiling, ZLYTE; type: biochemical
RPS6KA1 (RSK1) = RPS6KA1 (RSK1) (Homo sapiens, UniProt Q15418); test: SelectScreen kinase profiling, ZLYTE; type: biochemical
RET M918T = RET M918T (Homo sapiens, UniProt P07949, M918T); test: SelectScreen kinase profiling, LanthaScreen binding
SGK (SGK1) = SGK (SGK1) (Homo sapiens, UniProt O00141); test: SelectScreen kinase profiling, ZLYTE; type: biochemical
ACVR1 (ALK2) = ACVR1 (ALK2) (Homo sapiens, UniProt Q04771); test: SelectScreen kinase profiling, LanthaScreen binding
BT-16 cells = type: cell-based; conditions: BT-16, read-out: MTT: IC50 of the proliferation assay
ERBB2 (HER2) = ERBB2 (HER2) (Homo sapiens, UniProt P04626); test: SelectScreen kinase profiling, ZLYTE; type: biochemical
ULK3 = ULK3 (Homo sapiens, UniProt Q6PHR2); test: SelectScreen kinase profiling, LanthaScreen binding; conditions: ULK3, 10 µM
PKMYT1 = PKMYT1 (Homo sapiens, UniProt Q99640); test: as above; conditions: PKMYT1, 10 µM
ALK C1156Y = ALK C1156Y (Homo sapiens, UniProt Q9UM73, C1156Y); test: as above
HIPK1 (Myak) = HIPK1 (Myak) (Homo sapiens, UniProt Q86Z02); test: SelectScreen kinase profiling, ZLYTE; type: biochemical
PRKCD (PKC delta) = PRKCD (PKC delta) (Homo sapiens, UniProt Q05655); test: SelectScreen kinase profiling, ZLYTE; type: biochemical
P450 1A2 = P450 1A2 (Homo sapiens, UniProt P05177); test: SelectScreen P450 Vivid biochemical assay; conditions: 10000nM; substrate EOMCC
P450 2B6 = P450 2B6 (Homo sapiens, UniProt P20813); test: SelectScreen P450 Vivid biochemical assay; conditions: 10000nM; substrate BOMCC
HIPK3 (YAK1) = HIPK3 (YAK1) (Homo sapiens, UniProt Q9H422); test: SelectScreen kinase profiling, ZLYTE; type: biochemical
MINK1 = MINK1 (Homo sapiens, UniProt Q8N4C8); test: SelectScreen kinase profiling, ZLYTE; type: biochemical; conditions: MINK1, 10 µM
JAK2 = JAK2 (Homo sapiens, UniProt O60674); test: SelectScreen kinase profiling, ZLYTE; type: biochemical; conditions: JAK2, 10 µM
NUAK2 = NUAK2 (Homo sapiens, UniProt Q9H093); test: SelectScreen kinase profiling, LanthaScreen binding; conditions: NUAK2, 10 µM
CSF1R (FMS) = CSF1R (FMS) (Homo sapiens, UniProt P07333); test: SelectScreen kinase profiling, ZLYTE; type: biochemical

JAK2, sequence (O60674 whole entry): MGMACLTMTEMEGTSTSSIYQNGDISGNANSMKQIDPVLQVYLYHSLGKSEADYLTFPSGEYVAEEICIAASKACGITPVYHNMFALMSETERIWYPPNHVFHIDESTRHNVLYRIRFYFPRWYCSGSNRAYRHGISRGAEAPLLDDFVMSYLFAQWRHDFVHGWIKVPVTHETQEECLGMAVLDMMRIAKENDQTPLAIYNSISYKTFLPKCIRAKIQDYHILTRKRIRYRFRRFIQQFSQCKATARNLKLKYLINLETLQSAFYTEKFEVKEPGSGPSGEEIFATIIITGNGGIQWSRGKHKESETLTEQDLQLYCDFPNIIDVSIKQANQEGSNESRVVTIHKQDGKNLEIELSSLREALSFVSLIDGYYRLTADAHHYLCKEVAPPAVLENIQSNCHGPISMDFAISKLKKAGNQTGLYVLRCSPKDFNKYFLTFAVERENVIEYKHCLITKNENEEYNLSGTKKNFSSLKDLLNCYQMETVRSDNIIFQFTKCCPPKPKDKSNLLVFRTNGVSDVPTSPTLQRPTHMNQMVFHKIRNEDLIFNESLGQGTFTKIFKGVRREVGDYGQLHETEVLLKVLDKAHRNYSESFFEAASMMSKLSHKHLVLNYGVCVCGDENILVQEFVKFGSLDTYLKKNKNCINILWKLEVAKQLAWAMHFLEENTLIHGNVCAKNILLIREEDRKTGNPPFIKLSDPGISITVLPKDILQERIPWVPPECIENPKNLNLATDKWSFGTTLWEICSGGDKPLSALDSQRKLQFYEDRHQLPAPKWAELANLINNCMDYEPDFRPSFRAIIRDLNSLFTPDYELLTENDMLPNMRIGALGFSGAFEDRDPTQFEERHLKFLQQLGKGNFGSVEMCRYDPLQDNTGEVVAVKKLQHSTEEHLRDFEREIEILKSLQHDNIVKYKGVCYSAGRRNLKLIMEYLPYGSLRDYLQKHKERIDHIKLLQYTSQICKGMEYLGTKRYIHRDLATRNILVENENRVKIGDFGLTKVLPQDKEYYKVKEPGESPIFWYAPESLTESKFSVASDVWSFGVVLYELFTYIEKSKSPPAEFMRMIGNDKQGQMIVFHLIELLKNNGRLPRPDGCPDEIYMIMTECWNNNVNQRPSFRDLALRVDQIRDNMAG
MAPK14 (p38 alpha) Direct, sequence (Q16539 whole entry): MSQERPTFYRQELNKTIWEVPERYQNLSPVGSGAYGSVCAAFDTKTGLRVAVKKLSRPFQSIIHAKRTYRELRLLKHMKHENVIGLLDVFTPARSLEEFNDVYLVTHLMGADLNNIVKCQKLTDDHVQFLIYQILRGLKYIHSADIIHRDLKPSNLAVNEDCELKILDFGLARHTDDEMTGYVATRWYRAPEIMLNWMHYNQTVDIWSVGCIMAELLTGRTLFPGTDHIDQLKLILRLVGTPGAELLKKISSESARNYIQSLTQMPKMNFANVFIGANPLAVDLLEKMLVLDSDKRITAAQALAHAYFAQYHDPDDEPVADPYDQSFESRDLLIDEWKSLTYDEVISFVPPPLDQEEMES
ULK3, sequence (Q6PHR2 whole entry): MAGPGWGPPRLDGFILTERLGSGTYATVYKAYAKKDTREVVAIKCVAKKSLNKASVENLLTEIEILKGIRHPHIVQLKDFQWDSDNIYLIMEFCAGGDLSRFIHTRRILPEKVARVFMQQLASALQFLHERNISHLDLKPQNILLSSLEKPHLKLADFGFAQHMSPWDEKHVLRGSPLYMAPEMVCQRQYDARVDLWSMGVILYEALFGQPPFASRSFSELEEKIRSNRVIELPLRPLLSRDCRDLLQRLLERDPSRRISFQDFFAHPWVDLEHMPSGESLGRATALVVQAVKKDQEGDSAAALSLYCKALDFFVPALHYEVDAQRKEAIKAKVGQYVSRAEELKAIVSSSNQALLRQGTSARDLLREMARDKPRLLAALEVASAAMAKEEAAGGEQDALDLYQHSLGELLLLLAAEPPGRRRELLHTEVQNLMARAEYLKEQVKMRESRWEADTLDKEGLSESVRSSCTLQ
MAP2K6 (MKK6), sequence (P52564 whole entry): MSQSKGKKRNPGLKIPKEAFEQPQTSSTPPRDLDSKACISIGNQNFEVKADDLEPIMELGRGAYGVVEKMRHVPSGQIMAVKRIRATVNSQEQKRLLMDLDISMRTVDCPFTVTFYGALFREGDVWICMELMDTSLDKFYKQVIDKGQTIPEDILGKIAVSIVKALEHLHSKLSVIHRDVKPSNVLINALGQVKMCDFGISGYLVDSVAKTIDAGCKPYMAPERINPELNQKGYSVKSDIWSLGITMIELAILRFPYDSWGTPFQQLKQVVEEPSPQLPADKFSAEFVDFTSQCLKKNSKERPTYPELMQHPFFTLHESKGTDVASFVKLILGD
CDC42 BPB (MRCKB), sequence (Q9Y5S2 whole entry): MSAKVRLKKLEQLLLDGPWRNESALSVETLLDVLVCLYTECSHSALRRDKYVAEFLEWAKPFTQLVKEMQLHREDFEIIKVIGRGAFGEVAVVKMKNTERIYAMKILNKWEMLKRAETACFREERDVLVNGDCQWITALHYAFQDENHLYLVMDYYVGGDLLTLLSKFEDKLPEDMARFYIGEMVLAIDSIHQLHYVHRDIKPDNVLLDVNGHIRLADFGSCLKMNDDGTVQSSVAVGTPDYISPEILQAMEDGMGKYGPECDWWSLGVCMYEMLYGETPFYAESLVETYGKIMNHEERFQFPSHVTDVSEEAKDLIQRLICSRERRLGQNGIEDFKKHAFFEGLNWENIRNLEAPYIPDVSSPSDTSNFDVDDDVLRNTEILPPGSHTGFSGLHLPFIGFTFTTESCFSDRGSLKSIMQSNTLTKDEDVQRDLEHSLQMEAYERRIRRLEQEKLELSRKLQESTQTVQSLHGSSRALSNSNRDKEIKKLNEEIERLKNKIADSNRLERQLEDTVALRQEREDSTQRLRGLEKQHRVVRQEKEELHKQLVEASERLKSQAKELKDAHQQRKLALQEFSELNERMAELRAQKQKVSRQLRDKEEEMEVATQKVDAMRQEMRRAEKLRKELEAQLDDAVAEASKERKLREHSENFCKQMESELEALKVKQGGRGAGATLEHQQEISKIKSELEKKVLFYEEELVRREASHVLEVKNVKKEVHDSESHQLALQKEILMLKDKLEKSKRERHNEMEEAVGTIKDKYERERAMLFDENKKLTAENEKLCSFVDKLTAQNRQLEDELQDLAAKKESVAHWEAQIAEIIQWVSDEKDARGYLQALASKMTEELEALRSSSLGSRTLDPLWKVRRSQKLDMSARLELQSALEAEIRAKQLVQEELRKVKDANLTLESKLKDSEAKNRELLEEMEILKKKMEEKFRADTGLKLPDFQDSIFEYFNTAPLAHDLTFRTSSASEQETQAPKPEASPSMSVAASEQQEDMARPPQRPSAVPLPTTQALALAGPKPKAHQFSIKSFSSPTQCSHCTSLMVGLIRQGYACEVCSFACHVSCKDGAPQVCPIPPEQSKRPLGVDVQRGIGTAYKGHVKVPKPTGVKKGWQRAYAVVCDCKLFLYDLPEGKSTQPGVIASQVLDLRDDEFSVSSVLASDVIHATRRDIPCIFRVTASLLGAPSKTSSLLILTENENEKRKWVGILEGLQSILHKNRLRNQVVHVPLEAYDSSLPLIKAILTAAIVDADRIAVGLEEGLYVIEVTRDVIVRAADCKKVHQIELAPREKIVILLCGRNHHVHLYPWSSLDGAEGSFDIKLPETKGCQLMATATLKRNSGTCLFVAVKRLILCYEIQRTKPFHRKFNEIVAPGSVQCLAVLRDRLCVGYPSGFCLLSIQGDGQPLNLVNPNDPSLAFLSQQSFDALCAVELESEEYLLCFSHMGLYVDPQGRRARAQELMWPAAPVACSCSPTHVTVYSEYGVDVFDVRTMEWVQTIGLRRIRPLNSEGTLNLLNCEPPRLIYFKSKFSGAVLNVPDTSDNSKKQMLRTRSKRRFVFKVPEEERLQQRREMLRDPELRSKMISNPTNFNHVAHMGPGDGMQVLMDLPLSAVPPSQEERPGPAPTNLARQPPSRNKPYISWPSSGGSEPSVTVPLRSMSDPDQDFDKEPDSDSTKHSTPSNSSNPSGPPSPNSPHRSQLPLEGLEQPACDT
MAPK3 (ERK1), sequence (P27361 whole entry): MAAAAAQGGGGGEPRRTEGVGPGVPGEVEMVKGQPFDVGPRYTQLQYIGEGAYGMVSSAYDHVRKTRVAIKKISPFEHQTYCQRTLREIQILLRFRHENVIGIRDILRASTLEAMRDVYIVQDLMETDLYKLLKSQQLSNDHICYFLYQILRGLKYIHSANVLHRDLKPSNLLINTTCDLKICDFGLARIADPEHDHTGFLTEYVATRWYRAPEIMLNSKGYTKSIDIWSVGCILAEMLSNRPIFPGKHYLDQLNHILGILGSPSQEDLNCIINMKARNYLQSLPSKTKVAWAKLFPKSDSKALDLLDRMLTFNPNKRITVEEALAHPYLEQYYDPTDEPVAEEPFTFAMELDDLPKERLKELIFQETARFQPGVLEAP
PRKCD (PKC delta), sequence (Q05655 whole entry): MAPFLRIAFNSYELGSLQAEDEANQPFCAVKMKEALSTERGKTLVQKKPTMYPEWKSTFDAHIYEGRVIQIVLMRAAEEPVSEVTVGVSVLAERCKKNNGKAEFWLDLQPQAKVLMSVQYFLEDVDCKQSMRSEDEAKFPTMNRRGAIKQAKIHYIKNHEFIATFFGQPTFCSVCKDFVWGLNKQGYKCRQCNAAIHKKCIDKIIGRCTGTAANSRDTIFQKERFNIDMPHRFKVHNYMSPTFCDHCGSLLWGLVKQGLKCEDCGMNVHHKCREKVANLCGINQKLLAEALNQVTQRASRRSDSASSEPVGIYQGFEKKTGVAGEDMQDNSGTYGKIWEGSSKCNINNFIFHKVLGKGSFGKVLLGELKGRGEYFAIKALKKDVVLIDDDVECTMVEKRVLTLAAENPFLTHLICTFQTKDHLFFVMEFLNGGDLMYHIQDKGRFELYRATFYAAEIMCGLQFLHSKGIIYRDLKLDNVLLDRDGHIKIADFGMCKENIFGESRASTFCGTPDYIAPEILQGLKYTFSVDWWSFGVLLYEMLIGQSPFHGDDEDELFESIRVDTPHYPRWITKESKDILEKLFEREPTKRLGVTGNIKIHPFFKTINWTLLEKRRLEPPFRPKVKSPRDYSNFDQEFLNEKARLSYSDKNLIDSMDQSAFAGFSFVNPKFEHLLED

## O=C(c1ccc(/C=C/c2n[nH]c3ccccc23)cc1)N1CCNCC1 [KW-2449]
PDGFRA V561D
  inhibition at 10 µM: 97%
KIT Y823D
  inhibition at 10 µM: 61%
CDC42 BPB (MRCKB)
  inhibition at 10 µM: 27%
CLK3
  inhibition at 10 µM: 66%
GRK4
  inhibition at 10 µM: 61%
[1]
  inhibition at 10 µM: 44%
MAP2K6 (MKK6)
  inhibition at 10 µM: 79%
CDK8/cyclin C
  inhibition at 10 µM: 38%
P450 2C19
  IC50: 9.41 µM
CHEK1 (CHK1)
  inhibition at 10 µM: 99%
RPS6KA6 (RSK4)
  inhibition at 10 µM: 97%
PIK3C2A (PI3K-C2 alpha)
  inhibition at 10 µM: 4%
NEK7
  inhibition at 10 µM: 7%
PRKCQ (PKC theta)
  inhibition at 10 µM: 32%
ROS1
  inhibition at 10 µM: 98%
MAPK3 (ERK1)
  inhibition at 10 µM: 41%
RPS6KA1 (RSK1)
  inhibition at 10 µM: 94%
RET M918T
  inhibition at 10 µM: -40%
SGK (SGK1)
  inhibition at 10 µM: 98%
ACVR1 (ALK2)
  inhibition at 10 µM: 94%
BT-16 cells
  IC50: > 10 µM
ERBB2 (HER2)
  inhibition at 10 µM: 4%
ULK3
  inhibition at 10 µM: 5%
PKMYT1
  inhibition at 10 µM: -61%
ALK C1156Y
  inhibition at 10 µM: 76%
HIPK1 (Myak)
  inhibition at 10 µM: 70%
PRKCD (PKC delta)
  inhibition at 10 µM: 25%
P450 1A2
  % Inhibition 1A2 EOMCC: -3%
P450 2B6
  % Inhibition 2B6 BOMCC: 48%
HIPK3 (YAK1)
  inhibition at 10 µM: 53%
MINK1
  inhibition at 10 µM: 102%
JAK2
  inhibition at 10 µM: 98%
NUAK2
  inhibition at 10 µM: 62%
CSF1R (FMS)
  inhibition at 10 µM: 99%
